Some test systems named below: 786-0; A498; ACHN; DU-145; EKVX; HCC 2998; HOP-92; HT-29; LOX IMVI; MCF7; MOLT-4; NCI-H23; OVCAR-5; OVCAR-8; RPMI-8226; SK-MEL-2; SN12C; SNB-75; T47D.
Assay in all cases: inhibition of tumour cell growth, NCI panel, 48 h

Molecules are shown by their SMILES.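 Interpolation was linear, between the two tested concentrations surrounding the appropriate level; five concentrations were tested over 48 hours in 96-well plates. The concentration for 50% growth inhibition is given as GI50.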 The source made the active and inactive calls. Rule as the data show it: active = GI50 up to about 1.1 µM and inactive = higher. Peptide text beside a SMILES is read from it. * marks the point of attachment. Cbz = O=C(OCc1ccccc1)*

Regarding `O=[N+]([O-])C(=C(Nc1ccccc1)Nc1ccccc1)/C(Cl)=C(\Cl)Br`, the GI50 was 16.3 µM (inactive) in the assay on 786-0; 19.1 µM (inactive) with A498; 11.4 µM (inactive) in the assay with ACHN; 16.5 µM (inactive) in the assay with DU-145; 14.8 µM (inactive) with EKVX; 17.1 µM (inactive) in the assay on HCC 2998. Also, the GI50 in the assay on HOP-92 was 17.7 µM (inactive); in the assay on HT-29 it was 16.2 µM (inactive); with LOX IMVI, 3.27 µM (inactive); in the assay with MCF7, 12.5 µM (inactive); with MOLT-4 it was 3.1 µM (inactive); in the assay with NCI-H23 it was 12.1 µM (inactive). Besides, the GI50 in the assay on OVCAR-5 is 10.6 µM (inactive); with OVCAR-8, 16.5 µM (inactive); with RPMI-8226 it was 3.61 µM (inactive); with SK-MEL-2, 18 µM (inactive); in the assay with SN12C, 13.7 µM (inactive); in the assay on SNB-75 it was 12.4 µM (inactive). The GI50 with T47D is 12.7 µM (inactive).
With `Cc1cc(NCCCCCCCCCC[n+]2c(C)cc(N)c3ccccc32)c2ccccc2n1`, the GI50 in the assay with 786-0 was 1.78 µM (inactive); in the assay on A498 it was 2.08 µM (inactive); with ACHN, 2.31 µM (inactive); in the assay with DU-145 it was 2.49 µM (inactive); in the assay on HCC 2998, 0.675 µM (active); with HOP-92, 1.83 µM (inactive). Besides, the GI50 is 0.546 µM (active) with LOX IMVI; 0.313 µM (active) in the assay with MCF7; 0.322 µM (active) in the assay with MOLT-4; 0.0708 µM (active) with NCI-H23; 4.2 µM (inactive) in the assay with OVCAR-5; 0.875 µM (active) with OVCAR-8. For the same compound, the GI50 with RPMI-8226 is 0.029 µM (active); in the assay with SK-MEL-2, 1.87 µM (inactive); in the assay on SN12C, 0.733 µM (active); in the assay with SNB-75, 0.853 µM (active); in the assay with T47D it was 0.333 µM (active).
For `Brc1ccc(/N=C/C=C(\Nc2ccc(Br)cc2)C23CC4CC(CC(C4)C2)C3)cc1`, the GI50 is 13.9 µM (inactive) with 786-0; 14.1 µM (inactive) in the assay with A498; 11.1 µM (inactive) in the assay with ACHN; 14.5 µM (inactive) in the assay with DU-145; 18.8 µM (inactive) in the assay with EKVX; 16 µM (inactive) in the assay on HCC 2998. The GI50 with HOP-92 was 13.6 µM (inactive); with HT-29 it was 18 µM (inactive); in the assay with LOX IMVI, 1.91 µM (inactive); in the assay on MCF7 it was 11 µM (inactive); in the assay with MOLT-4 it was 6.07 µM (inactive); in the assay with NCI-H23 it was 16.9 µM (inactive). The GI50 in the assay on OVCAR-5 was 14.7 µM (inactive); with OVCAR-8, 19.4 µM (inactive); with RPMI-8226, 14.7 µM (inactive); in the assay with SK-MEL-2, 8.73 µM (inactive); in the assay on SN12C, 20.6 µM (inactive); in the assay with SNB-75, 17 µM (inactive). The GI50 in the assay on T47D is 8.07 µM (inactive).
For the compound `COC(=O)[C@@H]1[C@H](OC(C)=O)CCC2[C@@]3(C[C@@H](c4ccoc4)O[C@@H]3OC)[C@H](C)CC[C@]21C(=O)OC` (some centres not stated), the GI50 in the assay on 786-0, with A498, with ACHN, in the assay on DU-145, in the assay on EKVX and in the assay on HCC 2998 was > 25 µM (inactive) throughout. Also, the GI50 with HOP-92, in the assay on HT-29, with LOX IMVI, in the assay with MCF7, with MOLT-4 and in the assay on NCI-H23 was > 25 µM (inactive) throughout. In addition, the GI50 with OVCAR-5, in the assay with OVCAR-8, in the assay with RPMI-8226, in the assay on SK-MEL-2, with SN12C and in the assay on SNB-75 was > 25 µM (inactive) each time. Moreover, in the assay with T47D, the GI50 was > 25 µM (inactive).
Take `Cc1cc(Cl)ccc1C(=O)c1ccc2ccccc2c1C(=O)O`: the GI50 in the assay with 786-0 is > 100 µM (inactive); with A498 it was > 100 µM (inactive); with ACHN, > 100 µM (inactive); in the assay with DU-145 it was > 100 µM (inactive); in the assay with HCC 2998, 71.6 µM (inactive); in the assay with HOP-92, > 100 µM (inactive). The GI50 with HT-29 is > 100 µM (inactive); in the assay on MCF7, 41.5 µM (inactive); in the assay with MOLT-4, > 100 µM (inactive); in the assay with NCI-H23, > 100 µM (inactive); in the assay with OVCAR-5, > 100 µM (inactive); in the assay with OVCAR-8 it was > 100 µM (inactive). Moreover, the GI50 with RPMI-8226 was > 100 µM (inactive); in the assay on SK-MEL-2 it was > 100 µM (inactive); in the assay with SNB-75, 85.3 µM (inactive); in the assay with T47D it was > 100 µM (inactive).
For `Cc1c(-c2ccc(O)c(O)c2)oc(=O)c2c(O)cccc12`, the GI50 in the assay with 786-0 was 9.73 µM (inactive); in the assay with A498, 15 µM (inactive); in the assay on ACHN, 20 µM (inactive); in the assay on DU-145 it was 14.4 µM (inactive); with EKVX, 8.87 µM (inactive); in the assay with HCC 2998, 10.4 µM (inactive). In addition, the GI50 in the assay on HOP-92 was 16.3 µM (inactive); with MCF7 it was 6.68 µM (inactive); with MOLT-4, 3.02 µM (inactive); with NCI-H23, 10.3 µM (inactive); in the assay on OVCAR-5, 14.8 µM (inactive); with OVCAR-8, 53.3 µM (inactive). In addition, the GI50 in the assay on RPMI-8226 was 13.7 µM (inactive); with SK-MEL-2, 13.1 µM (inactive); with SN12C, 5.27 µM (inactive); with SNB-75, 13.3 µM (inactive); in the assay on T47D, 1.55 µM (inactive).
Take `COc1cc2cc(C(=O)N3CC(CCl)c4ccc([N+](C)(C)Cc5ccc([N+](=O)[O-])cc5)cc43)[nH]c2c(OC)c1OC` (configuration not stated): the GI50 with 786-0 was 2.32 µM (inactive); in the assay with A498, 1.76 µM (inactive); with ACHN, 2.29 µM (inactive); in the assay on DU-145, 3.05 µM (inactive); in the assay with EKVX it was 5.69 µM (inactive); with HCC 2998 it was 1.41 µM (inactive). Further, the GI50 was 2.52 µM (inactive) with HOP-92; 2.03 µM (inactive) in the assay with HT-29; 2.14 µM (inactive) in the assay on MCF7; 2.1 µM (inactive) in the assay on MOLT-4; 1.77 µM (inactive) in the assay on NCI-H23; 3.87 µM (inactive) in the assay on OVCAR-5. Moreover, the GI50 in the assay on OVCAR-8 was 1.75 µM (inactive); in the assay on RPMI-8226 it was 2.01 µM (inactive); in the assay on SK-MEL-2, 2.05 µM (inactive); with SN12C, 4.55 µM (inactive); with SNB-75, 3.3 µM (inactive); with T47D, 3.48 µM (inactive).
In the case of `CCOC(=O)C(C)NC(=O)C(C)NC(=O)C(C)NC(=O)C(C)NC(=O)C(C)NC(=O)C(C)NC(=O)C(C)NC(=O)OCc1ccccc1` (configuration not stated) (Cbz-AAAAAAA-OEt; configuration not given here), the GI50 in the assay with 786-0 is > 100 µM (inactive); with A498, 40.8 µM (inactive); in the assay with ACHN it was > 100 µM (inactive); with DU-145, > 100 µM (inactive); in the assay with EKVX, > 100 µM (inactive); in the assay with HCC 2998, > 100 µM (inactive). The GI50 in the assay with HOP-92, with HT-29, with LOX IMVI, with MCF7, in the assay with MOLT-4 and in the assay with NCI-H23 was > 100 µM (inactive) throughout. Besides, the GI50 with OVCAR-5, in the assay on OVCAR-8, in the assay on RPMI-8226, with SN12C, in the assay on SNB-75 and in the assay with T47D was > 100 µM (inactive) throughout.
Consider `O=c1oc2cccnc2n1CCN1CCN(c2ccc(Oc3ccccc3)cc2)CC1`, for which the GI50 was 20 µM (inactive) in the assay with 786-0; 40.9 µM (inactive) in the assay with A498; 35 µM (inactive) in the assay on ACHN; > 100 µM (inactive) with DU-145; > 100 µM (inactive) in the assay on EKVX; 52.8 µM (inactive) with HCC 2998. For the same compound, the GI50 in the assay with HOP-92 is 57.3 µM (inactive); with HT-29 it was 7.82 µM (inactive); with LOX IMVI, > 100 µM (inactive); with MCF7, > 100 µM (inactive); in the assay on MOLT-4 it was 19.7 µM (inactive); with NCI-H23 it was > 100 µM (inactive). The GI50 is > 100 µM (inactive) with OVCAR-5; > 100 µM (inactive) in the assay with OVCAR-8; 8.47 µM (inactive) in the assay on RPMI-8226; > 100 µM (inactive) with SK-MEL-2; 11.1 µM (inactive) with SNB-75; 10.4 µM (inactive) in the assay with T47D.
Regarding `CCCCOP(=O)(OCCCC)C(NS(=O)(=O)c1ccccc1)(C(=O)OCC)C(F)(F)F` (configuration not stated), the GI50 with 786-0 was 33.3 µM (inactive); in the assay on A498, 34.5 µM (inactive); in the assay on ACHN, 27.9 µM (inactive); in the assay with DU-145, 45.3 µM (inactive); in the assay with EKVX it was 30.1 µM (inactive); in the assay on HCC 2998, > 100 µM (inactive). In addition, the GI50 was 23.8 µM (inactive) in the assay on HOP-92; 40 µM (inactive) with HT-29; 31.4 µM (inactive) in the assay with LOX IMVI; 16.6 µM (inactive) with MCF7; 20.2 µM (inactive) in the assay on MOLT-4; 33.6 µM (inactive) in the assay with NCI-H23. In addition, the GI50 with OVCAR-5 was 31 µM (inactive); in the assay on OVCAR-8, 40.1 µM (inactive); in the assay on RPMI-8226 it was 24.5 µM (inactive); in the assay on SN12C it was 29.1 µM (inactive); in the assay on SNB-75 it was 27.6 µM (inactive); in the assay on T47D, > 100 µM (inactive).
With `COc1ccc(CNc2nc(NCc3ccc(OC)cc3)nc(NC(C)C)n2)cc1`, the GI50 is 7.91 µM (inactive) with 786-0; 4.79 µM (inactive) in the assay on A498; 8.02 µM (inactive) in the assay on ACHN; 19.2 µM (inactive) with DU-145; 25 µM (inactive) with EKVX; 28.6 µM (inactive) with HCC 2998. Further, the GI50 is 3.37 µM (inactive) with HOP-92; 5.41 µM (inactive) in the assay with HT-29; 6.89 µM (inactive) in the assay on LOX IMVI; 1.77 µM (inactive) in the assay on MCF7; 42.7 µM (inactive) in the assay on MOLT-4; 5.21 µM (inactive) in the assay with NCI-H23. In addition, the GI50 is 20.2 µM (inactive) in the assay with OVCAR-5; 13.1 µM (inactive) with OVCAR-8; 1.94 µM (inactive) in the assay on RPMI-8226; 6.5 µM (inactive) in the assay on SK-MEL-2; 7.08 µM (inactive) with SNB-75; 43.6 µM (inactive) with T47D.

The values above are taken from ChEMBL document CHEMBL1201862, “PubChem BioAssay data set” (2004).
